In patent publication US20240065261A1, “PENETRATING CRYOPROTECTION AGENTS AND METHODS OF MAKING AND USING SAME” (The Research Foundation for The State University of New York, priority 2020, published 2024):
“And” between values parts separate entries of the source, which are not always exact repeats. Equal entries are not always repeated.

How the values were obtained:
NIH-3T3 cells [1] = experiment: Post-thaw viability of cryopreserved NIH-3T3 cells (CCK-8), Example 1; assay type: cell-based; details: for Post-thaw viability, 24 hours post thaw / Post-thaw viability, 48 hours post-thaw: Table 1
Method: Cryopreservation protocol. […] Discarded 95% of the old media and added 0.5 mL new DMEM (pH=7.4) with 10% FBS and 400 mM trehalose (filtered with 0.22 μm filter) and re-suspended the cells. • Transferred the cell culture to cryo-tube and stored the tubes at −80° C. for 3 days. • Thawed the cells at 37° C. in a water bath until ice melted. • Counted the cell density in each cryo-tube with cell counter. • Re-cultured the cells in 96-well plate with fresh DMEM (PH=7.4) with 10% FBS. (while keeping cell density the approximately the same for each well). • Used CCK-8 kit to test the post-thaw viability after certain time.

NIH-3T3 cells [2] = experiment: Post-thaw total cell recovery of cryopreserved cells (trypan blue exclusion); assay type: cell-based; details: ±SEM
Method: The delivery of sugar alcohols into cells makes it possible to turn these molecules into intracellular CPAs. […] Total post-thaw cell recovery, defined as the ratio (%) of post-thaw live cells to the number of initially frozen live cells, which provides a more accurate measure of cryoprotective outcome than cell viability, was used to assess the cryoprotective effects of the diesters.
Systematic studies were then performed by incubating the cells (1) with each of diesters 1-4 (10 mM), (2) with unmodified sorbitol, mannitol, xylitol, or erythritol (10 mM), and (3) in medium without any of the diesters or sugar alcohols, at 37° C. for 48 h. The cells treated with diesters 1-4 and the four sugar alcohols were then transferred to freezing media consisting of DMEM, 10% FBS and 400 mM trehalose. The cells incubated with only the medium were divided into two portions, one being directly transferred to the freezing medium containing 400 mM trehalose (control 1) and the other being placed in a different freezing medium consisting of DMEM, 10% FBS and 5% DMSO but without trehalose (control 2). After being frozen at −80° C. for 72 h, the cells were thawed in a warm water bath at 37° C. until ice melted. The post-thaw cells were either immediately analyzed for their survival or were cultured in growth media (DMEM with 10% FBS) for 24 h and 48 h before being analyzed.
Incubation (for cryopreservation). NIH/3T3 cells were seeded into cell culture treated plates (100 mm) at a density of 2×10^4 cells/mL (10 mL/plate), allowed to adhere overnight and then incubated with different sample solutions (10 mL) for 48 hours at 37° C. under 5% CO2. Control cells were incubated with growth medium.
Cryopreservation. At the end of the incubation, the cells were rinsed with PBS (2 mL) and detached using 0.25% trypsin-EDTA (3 mL). The cells were pelleted (200×g, 5 min) and resuspended in growth medium with 400 mM trehalose except for the control-2 group. For control-2 group, cells were resuspended in growth medium with 5% DMSO (v/v). An aliquot of cells of each group was then removed for counting by a DeNovix Celldrop cell counter to obtain prefreeze number of viable cells. The remaining cell suspension was transferred into a 2 mL cryogenic vial. The vials were directly transferred to −80° C. freezer without controlling cooling rate and stored at −80° C. freezer for 3 days. To thaw, cryogenic vials were removed from −80° C. freezer and suspended in a 37° C. water bath until ice melt. To the contents of each vial 1 mL growth medium was added and centrifuged (200×g , 5 min). The supernatant was discarded and cell pellet was resuspended in 1 mL growth cell medium. An aliquot of cell suspension of each group was then removed for counting with a DeNovix Celldrop cell counter to obtain the number of viable cells at 0-hr post-thaw. The remaining cell suspension was split equally and resuspended into two cell culture treated plates (100 mm) with 10 mL growth medium in each plate. The plates were then maintained for either 24 hours or 48 hours at 37° C. under 5% CO2. After being cultured for either 24 hours or 48 hours, the cells were rinsed with PBS (2 mL) and detached using 0.25% trypsin-EDTA (3 mL). The cells were pelleted (200×g, 5 min) and resuspended in growth medium. The cell suspension was then analyzed by DeNovix Celldrop cell counter to obtain number of viable cells at either 24-hr or 48-hr post-thaw.
Trypan Blue Exclusion Assay. For all time points, a sample of cells was mixed 1:1 in 0.4% trypan blue and counted using a DeNovix Celldrop. Cell recovery was calculated as the ratio of viable cells to the number of cells initially frozen.

3T3 cells = experiment: Cryopreservation, post-thaw recovery rate, Example 3; assay type: cell-based; details: incubated with medium only; frozen −80° C. in medium with 5% DMSO
Method: Cryopreservation: The cryopreservation effects of EGL-3Pro and EGL-3Phe were tested on 3T3 cells. The cells were incubated with 5 mM or 10 mM EGL-3Pro or 0.5 mM EGL-3Phe or medium only (two control groups) for 72 hours. After incubation, the cells were detached by treating […] pelleted by centrifuging (200×g). The cells were then resuspended in medium with 400 mM trehalose or 5% DMSO (for control 2 group) in cryovials and a small portion of cell suspension were used for counting pre-freeze cell number. The vials were directly put in −80° C. freezer and stored for at least 3 days. The cells were thawed in 37° C. water bath until ice melt, and resuspended in 10 mL fresh medium and pelleted by centrifuging (200×g). The cells were then resuspended in 1 mL fresh medium and counted by cell counter. The recovery rate was obtained by dividing post-thaw lived cell number by pre-freeze lived cell number.

NIH-3T3 cells [3] = experiment: Live/dead fluorescence microscopy of post-thaw cells (calcein-AM / ethidium homodimer-1); assay type: cell-based; details: 24 h post-thaw; incubated with 10 mM for 48 h, frozen in media with 400 mM trehalose (FIG. 14)
Method: DIC and Fluorescence images capturing. NIH/3T3 cells were treated as the same as for cryopreservation experiment and were thawed in a 37° C. water bath until ice melt. Cells in each vial were then pelleted (200×g, 5 min), re-suspended in 1 mL fresh growth medium and plated into 96 well plate and grown for 24 hours. Each well was washed with sterile PBS (100 μL). Sterile PBS (200 μL) containing 2 μM calcein-AM and 4 μM ethidium homodimer-1 (EthD-1) was then added to each well. The 96-well plate was then incubated in a CO2 incubator at 37° C. for 30 min. Fresh cells without freezing were plated at similar density in 96-well plate as comparison. DIC and fluorescence microscopy images were captured at 509 and 580 nm on Axioplan 2 fluorescent microscope (Zeiss [Carl Zeiss], Thornwood, NY) with an Axiocam MRm camera (Zeiss). Axiovision 4 software (Zeiss) was used for image acquisition. Digital images were processed with ImageJ (imagej.nih.gov/ij/).

NIH-3T3 cells [4] = experiment: Cytotoxicity, CCK-8 cell viability after 48 h incubation
Method: Cytotoxicity assays were performed by exposing NIH-3T3 cells to the diesters. Cell viability was determined by using Cell Counting Kit-8 (CCK-8) reagent and a BioTek microplate reader to count the numbers of live and dead cells.
NIH/3T3 cells were seeded into 96-well plates (Fisher brand) at a density of 8,000 cells in 150 μL growth medium per well. The cells were incubated for 24 hours at 37° C. with 5% CO2. After 24 hours all medium was aspired one row at a time and treated with various concentrations of each compound (10 mM, 5 mM, 1 mM, 0.5 mM and 0.1 mM) or carboxylic acid/NaOH (10 mM/5 mM, 5 mM/2.5 mM). The control cells were treated with fresh medium only. The cells were then incubated again for 48 hours at 37° C. with 5% CO2. After incubation, all medium was aspired and replaced with fresh medium and 10% (v/v) CCK-8 reagent and returned to incubate at 37° C. with 5% CO2 for 2 hours. Cell viability was then calculated from the OD value read by a plate reader (Biotek Synergy H1) at wavelength of 450 nm.

[5] = incubated with 10% DMSO, reference set as 100%
[6] = Table 2, incubated with 10% DMSO, reference set as 100%
[7] = Table 3, incubated with 10% DMSO, reference set as 100%
[8] = incubated with media only, frozen in media containing 5% DMSO without trehalose
[9] = incubated with 10 mM for 48 h, frozen −80° C. 72 h in media with 400 mM trehalose
[10] = incubated at 5 mM without DMSO, frozen −80° C. 72 hours, freezing media with 400 mM trehalose, 10% DMSO set as 100%
[11] = incubated at 10 mM without DMSO, frozen −80° C. 72 hours, freezing media with 400 mM trehalose, 10% DMSO set as 100%
[12] = Table 2, incubated 36 hours at 5 mM without DMSO, frozen −80° C. 72 hours, 400 mM trehalose, 10% DMSO set as 100%
[13] = Table 2, incubated 36 hours at 10 mM without DMSO, frozen −80° C. 72 hours, 400 mM trehalose, 10% DMSO set as 100%
[14] = Table 3, incubated 36 hours at 5 mM without DMSO, frozen −80° C. 72 hours, 400 mM trehalose, 10% DMSO set as 100%
[15] = Table 3, incubated 36 hours at 10 mM without DMSO, frozen −80° C. 72 hours, 400 mM trehalose, 10% DMSO set as 100%

Compound: C[S+](C)[O-] [DMSO, dimethyl sulfoxide, reference compound]
- Post-thaw viability, 24 hours post thaw (NIH-3T3 cells [1]; [5]): 100.0 ± 11.8%
- Post-thaw viability, 48 hours post-thaw (NIH-3T3 cells [1]; [5]): 100.0 ± 4.0%
- Post-thaw viability (%), 24 hours post thaw (NIH-3T3 cells [1]; [6]): 100.0 ± 3.6%
- Post-thaw viability (%), 48 hours post-thaw (NIH-3T3 cells [1]; [6]): 100.0 ± 13.4%
- Post-thaw viability (%), 24 hours post thaw (NIH-3T3 cells [1]; [7]): 100.0 ± 13.5%
- Post-thaw viability (%), 48 hours post-thaw (NIH-3T3 cells [1]; [7]): 100.0 ± 5.3%
- Post-thaw recovery (%) 0-hr (NIH-3T3 cells [2]; [8]): 84.5 ± 3.8%
- Post-thaw recovery (%) 24-hr (NIH-3T3 cells [2]; [8]): 93.9 ± 2.4%
- Post-thaw recovery (%) 48-hr (NIH-3T3 cells [2]; [8]): 196.4 ± 5.7%
- 0-hour post thaw recovery (%) (3T3 cells): 77.9 ± 3.8%

Compound: CCC(=O)OC[C@@H](O)[C@@H](O)COC(=O)CC [EryPr2]
- Post-thaw recovery (%) 0-hr (NIH-3T3 cells [2]; [9]): 48% and 47.9 ± 3.4%
- Post-thaw recovery (%) 24-hr (NIH-3T3 cells [2]; [9]): 42.6 ± 2.6%
- Post-thaw recovery (%) 48-hr (NIH-3T3 cells [2]; [9]): 72% and 71.6 ± 3.9%

Compound: OC[C@@H](O)[C@@H](O)CO [Erythritol, erythritol, reference compound]
- Post-thaw recovery (%) 0-hr (NIH-3T3 cells [2]; [9]): 33.5 ± 2.7%
- Post-thaw recovery (%) 24-hr (NIH-3T3 cells [2]; [9]): 26.0 ± 0.6%
- Post-thaw recovery (%) 48-hr (NIH-3T3 cells [2]; [9]): 42.3 ± 1.2%

Compound: O=C(OCC(COC(=O)[C@@H]1CCCN1)OC(=O)[C@@H]1CCCN1)[C@@H]1CCCN1 [GLC3P]
- Post-thaw viability, 24 hours post thaw (NIH-3T3 cells [1]; [10]): 130.9 ± 5.3%
- Post-thaw viability, 48 hours post-thaw (NIH-3T3 cells [1]; [10]): 143.8 ± 4.2%
- Post-thaw viability, 24 hours post thaw (NIH-3T3 cells [1]; [11]): 174.7 ± 6.9%
- Post-thaw viability, 48 hours post-thaw (NIH-3T3 cells [1]; [11]): 220.4 ± 5.5%

Compound: OC[C@@H](O)[C@@H](O)[C@H](O)[C@H](O)CO [Mannitol, mannitol, reference compound]
- Post-thaw recovery (%) 0-hr (NIH-3T3 cells [2]; [9]): 24.1 ± 1.8%
- Post-thaw recovery (%) 24-hr (NIH-3T3 cells [2]; [9]): 20.8 ± 1.5%
- Post-thaw recovery (%) 48-hr (NIH-3T3 cells [2]; [9]): 41.5 ± 3.0%
- Post-thaw viability/recovery in fluorescence microscopy images (NIH-3T3 cells [3]): does not result in higher post-thaw viability than cells treated with media only

Compound: O=C(OC[C@H](OC(=O)[C@@H]1CCCN1)[C@@H](OC(=O)[C@@H]1CCCN1)[C@H](OC(=O)[C@@H]1CCCN1)[C@@H](COC(=O)[C@@H]1CCCN1)OC(=O)[C@@H]1CCCN1)[C@@H]1CCCN1 [SBT6P]
- Post-thaw viability (%), 24 hours post thaw (NIH-3T3 cells [1]; [12]): 33.3 ± 1.4%
- Post-thaw viability (%), 48 hours post-thaw (NIH-3T3 cells [1]; [12]): 66.2 ± 2.0%
- Post-thaw viability (%), 24 hours post thaw (NIH-3T3 cells [1]; [13]): 34.0 ± 3.5%
- Post-thaw viability (%), 48 hours post-thaw (NIH-3T3 cells [1]; [13]): 69.6 ± 6.5%

Compound: CCCC(=O)OC[C@@H](O)[C@@H](O)[C@H](O)[C@@H](O)COC(=O)CCC [SorbBa2]
- Post-thaw viability (%), 24 hours post thaw (NIH-3T3 cells [1]; [14]): 113.4 ± 9.5%
- Post-thaw viability (%), 48 hours post-thaw (NIH-3T3 cells [1]; [14]): 143.3 ± 7.4%
- Post-thaw viability (%), 24 hours post thaw (NIH-3T3 cells [1]; [15]): 150.4 ± 1.5%
- Post-thaw viability (%), 48 hours post-thaw (NIH-3T3 cells [1]; [15]): 211.8 ± 2.2%

Compound: OC[C@@H](O)[C@@H](O)[C@H](O)[C@@H](O)CO [Sorbitol, sorbitol, reference compound]
- Post-thaw recovery (%) 0-hr (NIH-3T3 cells [2]; [9]): 32.8 ± 3.2%
- Post-thaw recovery (%) 24-hr (NIH-3T3 cells [2]; [9]): 28.4 ± 2.1%
- Post-thaw recovery (%) 48-hr (NIH-3T3 cells [2]; [9]): 50.8 ± 3.5%
- Post-thaw viability/recovery in fluorescence microscopy images (NIH-3T3 cells [3]): does not result in higher post-thaw viability than cells treated with media only

Compound: CCC(=O)OC[C@@H](O)[C@H](O)[C@@H](O)COC(=O)CC [XylPr2]
- Post-thaw recovery (%) 0-hr (NIH-3T3 cells [2]; [9]): 52.1 ± 4.8%
- Post-thaw recovery (%) 24-hr (NIH-3T3 cells [2]; [9]): 49.7 ± 1.1%
- Post-thaw recovery (%) 48-hr (NIH-3T3 cells [2]; [9]): 90.0 ± 4.3%

Compound: OC[C@@H](O)[C@H](O)[C@@H](O)CO [Xylitol, xylitol, reference compound]
- Post-thaw recovery (%) 0-hr (NIH-3T3 cells [2]; [9]): 24.6 ± 2.4%
- Post-thaw recovery (%) 24-hr (NIH-3T3 cells [2]; [9]): 22.1 ± 2.1%
- Post-thaw recovery (%) 48-hr (NIH-3T3 cells [2]; [9]): 44.3 ± 4.7%

Compound: CCCC(=O)O [butyric acid]
- Cell viability relative to control groups (NIH-3T3 cells [4]; at 5 mM): ~50%
- Cell viability relative to control groups (NIH-3T3 cells [4]; at 10 mM): ~40%

Compound: CCC(=O)O [propionic acid]
- Cell viability relative to control groups (NIH-3T3 cells [4]; up to 10 mM): ~70%
